Measurements taken from PubChem BioAssay (NCI).
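Cells were grown in 96-well plates and exposed to each compound for 48 hours at five concentrations; endpoints were interpolated linearly between bracketing concentrations, or set to the highest concentration if not reached. The concentration for 50% growth inhibition is given as GI50. The concentration for full growth arrest is given as TGI.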

Tests used:
Test in all cases: NCI-60 cell line screen, 48 h
[1] = tested on: SW-620 colon
[2] = tested on: KM12 colon
[3] = tested on: SK-MEL-28 melanoma
[4] = tested on: IGROV1 ovarian
[5] = tested on: SF-268 CNS
[6] = tested on: UACC-62 melanoma
[7] = tested on: EKVX NSCLC
[8] = tested on: A498 renal
[9] = tested on: HT29 colon
[10] = tested on: OVCAR-5 ovarian
[11] = tested on: ACHN renal
[12] = tested on: TK-10 renal
[13] = tested on: SK-MEL-2 melanoma
[14] = tested on: A549 NSCLC
[15] = tested on: NCI-H23 lung
[16] = tested on: M14 melanoma
[17] = tested on: HL-60(TB) leukemia
[18] = tested on: SR leukemia
[19] = tested on: CCRF-CEM leukemia
[20] = tested on: MDA-MB-435
[21] = tested on: T-47D breast
[22] = tested on: OVCAR-8 ovarian
[23] = tested on: U251 CNS
[24] = tested on: CAKI-1 renal
[25] = tested on: UO-31 renal
[26] = tested on: SF-295 CNS
[27] = tested on: SNB-19 CNS
[28] = tested on: HCC-2998 colon
[29] = tested on: MALME-3M melanoma
[30] = tested on: SN12C renal
[31] = tested on: HS 578T breast
[32] = tested on: MCF7 breast
[33] = tested on: MOLT-4 leukemia
[34] = tested on: HOP-92 NSCLC
[35] = tested on: NCI-H460 lung
[36] = tested on: OVCAR-4 ovarian
[37] = tested on: NCI-H226 lung
[38] = tested on: PC-3 prostate
[39] = tested on: SK-OV-3 ovarian
[40] = tested on: SNB-75 CNS
[41] = tested on: 786-0 renal
[42] = tested on: HCT-15 colon
[43] = tested on: MDA-MB-231 breast
[44] = tested on: OVCAR-3 ovarian
[45] = tested on: NCI/ADR-RES ovarian
[46] = tested on: COLO 205 colon
[47] = tested on: HCT-116 colon
[48] = tested on: NCI-H522 lung
[49] = tested on: LOX IMVI melanoma
[50] = tested on: RXF 393 renal
[51] = tested on: K-562 leukemia
[52] = tested on: BT-549 breast
[53] = tested on: DU-145 prostate
[54] = tested on: SF-539 CNS
[55] = tested on: RPMI-8226 leukemia
[56] = tested on: UACC-257 melanoma
[57] = tested on: HOP-62 NSCLC

## O=C(c1ccccc1)N(C(=S)NCCc1ccc(Cl)cc1)c1ccc(Cl)cc1
[1]
  GI50: 4.49 µM
  TGI: 16.7 µM
[2]
  GI50: 4.24 µM
  TGI: 15.3 µM
[3]
  GI50: 12.7 µM
  TGI: 27 µM
[4]
  GI50: 3.88 µM
  TGI: 16.2 µM
[5]
  GI50: 5.67 µM
  TGI: 18.4 µM
[6]
  GI50: 11.4 µM
  TGI: 23.8 µM
[7]
  GI50: 17.4 µM
  TGI: 38.8 µM
[8]
  GI50: 16.3 µM
  TGI: 30.7 µM
[9]
  GI50: 5.3 µM
  TGI: 58.4 µM
[10]
  GI50: 19.6 µM
  TGI: 36.4 µM
[11]
  GI50: 5.68 µM
  TGI: 17.4 µM
[12]
  GI50: 5.67 µM
  TGI: 19.7 µM
[13]
  GI50: 20.2 µM
  TGI: 36.4 µM
[14]
  GI50: 19.4 µM
  TGI: 49.9 µM
[15]
  GI50: 13 µM
  TGI: 31.4 µM
[16]
  GI50: 8.42 µM
  TGI: 25 µM
[17]
  GI50: 6.77 µM
  TGI: > 100 µM
[18]
  GI50: 5.54 µM
  TGI: > 100 µM
[19]
  GI50: 2.59 µM
  TGI: 10.7 µM
[20]
  GI50: 4.67 µM
  TGI: 20.4 µM
[21]
  GI50: 6.24 µM
  TGI: 25.3 µM
[22]
  GI50: 19.1 µM
  TGI: 35.3 µM
[23]
  GI50: 4.38 µM
  TGI: 14.9 µM
[24]
  GI50: 5.48 µM
  TGI: 20.9 µM
[25]
  GI50: 2.61 µM
  TGI: 8.85 µM
[26]
  GI50: 14.6 µM
  TGI: 31.9 µM
[27]
  GI50: 15.9 µM
  TGI: 30.1 µM
[28]
  GI50: 8.54 µM
  TGI: 22.6 µM
[29]
  GI50: 11.8 µM
  TGI: 28.6 µM
[30]
  GI50: 7.45 µM
  TGI: 20.7 µM
[31]
  GI50: 13.8 µM
  TGI: > 100 µM
[32]
  GI50: 3.58 µM
  TGI: 19.4 µM
[33]
  GI50: 3.14 µM
  TGI: > 100 µM
[34]
  GI50: 7.3 µM
  TGI: 21 µM
[35]
  GI50: 19.4 µM
  TGI: 42.4 µM
[36]
  GI50: 13.7 µM
  TGI: 29.3 µM
[37]
  GI50: 16.7 µM
  TGI: 39.4 µM
[38]
  GI50: 6.94 µM
  TGI: 26.2 µM
[39]
  GI50: 18.3 µM
  TGI: 32.8 µM
[40]
  GI50: 13.5 µM
  TGI: 27.9 µM
[41]
  GI50: 14.7 µM
  TGI: 28.6 µM
[42]
  GI50: 3.57 µM
  TGI: 14.4 µM
[43]
  GI50: 6.95 µM
  TGI: 20.4 µM
[44]
  GI50: 3.75 µM
  TGI: 13.3 µM
[45]
  GI50: 16.2 µM
  TGI: 30.9 µM
[46]
  GI50: 6.83 µM
  TGI: 23.1 µM
[47]
  GI50: 7.11 µM
  TGI: 23.7 µM
[48]
  GI50: 8.3 µM
  TGI: 22.9 µM
[49]
  GI50: 2.4 µM
  TGI: 5.3 µM
[50]
  GI50: 12.8 µM
  TGI: 28.6 µM
[51]
  GI50: 74.6 µM
  TGI: > 100 µM
[52]
  GI50: 11.8 µM
  TGI: 25.8 µM
[53]
  GI50: 5.22 µM
  TGI: 16.7 µM
[54]
  GI50: 5.93 µM
  TGI: 19.1 µM
[55]
  GI50: 2.08 µM
  TGI: 5.66 µM
[56]
  GI50: 18.2 µM
  TGI: 34.6 µM
[57]
  GI50: 20.2 µM
  TGI: 37.9 µM
